From patent EP0671915B1, “USE OF IDAZOXAN AND DERIVATIVES THEREOF IN PREPARING A DRUG FOR TREATING PARKINSON'S DISEASE AND ITS DEVELOPMENT” (PIERRE FABRE MEDICAMENT, priority 1992, dated 1994)

Key:
neurones dopaminergiques = assay: Mouse model of DSP4 + MPTP induced degeneration: cortical noradrenaline and striatal dopamine levels; type: in vivo, souris; set-up: key to Taux de NA cortical / Taux de DA striatale: * à *** niveau de dégénérescence estimé par la diminution des taux de NA cortical et DA striatale; * à *** niveau de dégénérescence estimé par la diminution des taux de NA cortical et DA striatale; * à *** niveau de dégénérescence estimé par la diminution des taux de NA cortical et DA striatale; details: for Taux de DA striatale / Taux de NA cortical: mice given DSP4 and MPTP, then treated, measured after end of treatment, symbol = level of degeneration
[1] = depression; 5 to 40 mg, 3 times a day for 4 weeks; versus placebo; cited from earlier work
[2] = Clinical study in idiopathic Parkinson's disease patients versus 1-DOPA: motor symptoms; type: in vivo; set-up: key: 0 : pas de changements par rapport à avant le traitement; + a +++ amélioration; + a +++ amélioration; + a +++ amélioration; details: oral, 4 weeks; for symptômes précoces, persistance de l'amélioration après traitement / symptômes précoces, pendant traitement: eye blinking; for symptômes précoces, persistance de l'amélioration après traitement / symptômes tardifs, persistance de l'amélioration après traitement: after end of treatment; for symptômes précoces, pendant traitement / symptômes tardifs, pendant traitement: during treatment; for symptômes tardifs, persistance de l'amélioration après traitement / symptômes tardifs, pendant traitement: hypokinesia
Description: 20 patients ont été sélectionnés répondant aux critères idiopathiques de la maladie de Parkinson et une étude a été menée contre la 1-DOPA.
Les administrations sont effectuées pendant 4 semaines par voie orale dans une gamme de dose de 500 mg à 4 g par jour pour la 1-DOPA, et pour l'Idazoxan d'une dose initiale de 3 fois 5 mg par jour croissant à un maximum de 3 fois 40 mg par jour, le clinicien déterminant la posologie exacte pour chaque patient.
L'efficacité des traitements a été mesurée sur les symptômes moteurs, du type tremblement d'action, d'intention, de repos, sur l'hypokinésie (symptômes tardifs) et le clignement des paupières (symptôme précoce de la maladie). Les observations ont été faites pendant le traitement et après arrêt du traitement pour mettre en évidence la persistance éventuelle de l'amélioration des symptômes.

voie nigro-striée = assay: Squirrel monkey MPTP model with noradrenergic lesion (protocol analogous to Mavridis et al.); type: in vivo, singe écureuil; details: behavioural, biochemical and histological results
Excerpt: L'emploi de l'idazoxan a également été étudié chez le singe écureuil selon un protocole analogue à celui de M. MAVRIDIS et al. Neuroscience 41,507 (1991).
Les résultats comportementaux, biochimiques et histologiques montrent qu'une lésion du système noradrénergique induit une dégénération de la voie nigrostriée après administration du MPTP.

SMILES	Taux de DA striatale (neurones dopaminergiques)	Taux de NA cortical (neurones dopaminergiques)	dégénérescence de neurones dopaminergiques provoquée par le DSP4 et la MPTP (neurones dopaminergiques; shown by slower fall of striatal dopamine compared with 1-DOPA (Groupe F) or apomorphine (Groupe G))	échelle de Hamilton [1]	symptômes précoces, persistance de l'amélioration après traitement [2]	symptômes précoces, pendant traitement [2]	symptômes tardifs, persistance de l'amélioration après traitement [2]	symptômes tardifs, pendant traitement [2]	effet de la lésion de la voie nigro-striée (voie nigro-striée)
CN1CCc2cccc3c2[C@H]1Cc1ccc(O)c(O)c1-3 [G, apomorphine, reference compound]	***	*	–	–	–	–	–	–	–
c1ccc2c(c1)OCC(C1=NCCN1)O2 (stereo not drawn) [idazoxan, 2-(2-(1,4-benzodioxanyl))-2-imidazoline]	*	*	ralentissement de la dégénérescence de neurones dopaminergiques	amélioration significative	++	++	+	+	diminue l'effet de la lésion de la voie nigro-striée et améliore l'évolution
N[C@@H](Cc1ccc(O)c(O)c1)C(=O)O [1-DOPA, reference compound]	–	–	–	–	0	+++	0	+++	–
